Data: article PMC12036971 (2025)

Molecular target: Akita16 HA (crystal construct) (Influenza A virus (A/black swan/Akita/1/2016(H5N6)), UniProt A0A1L7N0F8)

## CC(=O)N[C@H]1[C@H](O[C@H]2[C@@H](O)[C@@H](CO)O[C@@H](O[C@H]3[C@H](O)[C@@H](O)C(O)O[C@@H]3CO)[C@@H]2O)O[C@H](CO)[C@@H](O)[C@@H]1O[C@@H]1O[C@H](CO)[C@H](O)[C@H](O[C@]2(C(=O)O)C[C@H](O)[C@@H](NC(C)=O)[C@H]([C@H](O)[C@H](O)CO)O2)[C@H]1O (stereo partly shown) [LSTa, NeuAcα2-3Galβ1-3GlcNAcβ1-3Galβ1-4Glc]
  X-ray crystal structure of complex, 2.71 Å: Akita16-WT HA structure with avian-type receptor analog, LSTa
